Assay results as given in ChEMBL document CHEMBL1158678, “Two new mono-tetrahydrofuran ring acetogenins, annomuricin E and muricapentocin, from the leaves of Annona muricata” (J Nat Prod, 1998).
≈ marks a conversion by molar mass, not a printed value.

Key:
[1] = Toxicity against Artemia salina; assay type: organism-based; conditions: in vivo, read-out: ED50 (the source's name)
[2] = test system: A549; experiment: Cytotoxicity against human A549 cells after 7 days by MTT assay; assay type: functional; conditions: A549, 168 h, read-out: ED50 (the source's name)
[3] = test system: MCF7; experiment: Cytotoxicity against human MCF7 cells after 7 days by MTT assay; assay type: functional; conditions: MCF7, 168 h, read-out: ED50 (the source's name)
[4] = test system: HT-29; experiment: Cytotoxicity against human HT-29 cells after 7 days by MTT assay; assay type: functional; conditions: HT-29, 168 h, read-out: ED50 (the source's name)
[5] = test system: A498; experiment: Cytotoxicity against human A498 cells after 7 days by MTT assay; assay type: functional; conditions: A498, 168 h, read-out: ED50 (the source's name)
[6] = test system: PC-3; experiment: Cytotoxicity against human PC3 cells after 7 days by MTT assay; assay type: functional; conditions: PC-3, 168 h, read-out: ED50 (the source's name)
[7] = test system: MIA PaCa-2; experiment: Cytotoxicity against human MIAPaCa2 cells after 7 days by MTT assay; assay type: functional; conditions: MIA PaCa-2, 168 h, read-out: ED50 (the source's name)

SMILES	LC50 [1] [µg/mL]	EC50 [2] [µg/mL]	EC50 [3] [µg/mL]	EC50 [4] [µg/mL]	EC50 [5] [µg/mL]	EC50 [6] [µg/mL]	EC50 [7] [µg/mL]
CCCCCCCCCCCC[C@@H](O)[C@H]1CC[C@H]([C@H](O)CCC(O)CCCC(O)CCC[C@@H](O)CC2=C[C@H](C)OC2=O)O1 (stereo not given in full) [MURICAPENTOCIN]	1.86 (≈ 3.03 µM)	0.193 (≈ 0.315 µM)	1.9 (≈ 3.1 µM)	0.071 (≈ 0.116 µM)	1.72 (≈ 2.81 µM)	0.45 (≈ 0.734 µM)	0.0503 (≈ 0.0821 µM)
CCCCCCCCCCCC[C@@H](O)[C@H]1CC[C@H]([C@H](O)CCC[C@@H](O)[C@@H](O)CCCCC[C@@H](O)CC2=C[C@H](C)OC2=O)O1 [ANNOMURICIN E]	11.8 (≈ 19.3 µM)	0.112 (≈ 0.183 µM)	1.45 (≈ 2.37 µM)	0.0668 (≈ 0.109 µM)	1.41 (≈ 2.3 µM)	0.146 (≈ 0.238 µM)	0.0242 (≈ 0.0395 µM)
COc1cccc2c1C(=O)c1c(O)c3c(c(O)c1C2=O)C[C@@](O)(C(=O)CO)C[C@@H]3O[C@H]1C[C@H](N)[C@H](O)[C@H](C)O1 [DOXORUBICIN]		0.00294 (≈ 0.00541 µM)	0.124 (≈ 0.228 µM)	0.0381 (≈ 0.0701 µM)	0.0158 (≈ 0.0291 µM)	0.0355 (≈ 0.0653 µM)	0.00456 (≈ 0.00839 µM)
